Activity calls are given as the source filed them.
Key:
Large T antigen = Large T antigen (Simian virus 40, UniProt P03070); type: functional, Betapolyomavirus macacae;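 further: Confirmatory-stage PubChem screen for compounds that inhibit SV40 T antigen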
[1] = target: T1, Mannose-6-phosphate isomerase (Homo sapiens, UniProt P34949); assay: MPI enzyme activity inhibition – biochemical, fluorescence intensity, coupled assay, primary screen (AID 1209)
T1 sequence (P34949 whole entry): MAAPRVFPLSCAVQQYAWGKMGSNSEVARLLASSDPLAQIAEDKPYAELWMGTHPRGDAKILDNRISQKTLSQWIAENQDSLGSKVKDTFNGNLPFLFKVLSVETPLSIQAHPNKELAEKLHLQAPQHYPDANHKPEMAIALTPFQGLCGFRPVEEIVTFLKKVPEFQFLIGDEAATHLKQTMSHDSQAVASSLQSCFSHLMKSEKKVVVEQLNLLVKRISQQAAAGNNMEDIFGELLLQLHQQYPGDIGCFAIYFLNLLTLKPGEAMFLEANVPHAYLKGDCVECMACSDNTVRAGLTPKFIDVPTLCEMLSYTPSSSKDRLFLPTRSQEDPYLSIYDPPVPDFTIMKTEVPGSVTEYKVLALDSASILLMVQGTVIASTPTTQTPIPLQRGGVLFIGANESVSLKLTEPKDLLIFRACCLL

[2] = viability loss in THP-1 monocytes – THP-1 cells, cytotoxicity control for Vif-APOBEC3G degradation inhibitor project, dose response (AID 1117359); type: functional; conditions: THP-1
Vero [3] = assay: mammalian cell viability reduction – secondary assay, cytotoxicity control for West Nile virus antiviral project, dose response (AID 1650); type: functional; conditions: Chlorocebus sabaeus
[4] = Trypanosoma cruzi growth suppression in host cells – NIH3T3 host cells, beta-gal luminescence, confirmation (AID 2044); type: functional, cell-based;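 further: intracellular parasites grown in NIH/3T3 mouse fibroblasts as host cells; luminescent beta-galactosidase reporter signal from transgenic T. cruzi replicating inside host cells; inhibitors lower the luminescence signal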
[5] = NIH3T3 cell viability loss – ATP luminescence, mouse fibroblasts, counter-screen, dose response (AID 2010); type: functional, cell-based;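 further: cells exposed to compound for about 90 hours before reading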
[6] = HEK-293T viability loss after treatment – luminescence, T-cell screen hits, cytotoxicity control for TCR NF-kB inhibitor project, dose response (AID 489026); type: functional, cell-based;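 further: cells exposed to compound about 14 hours before the viability readout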
Vero [7] = assay: cells; type: functional; conditions: Chlorocebus sabaeus
[8] = A High Throughput Confirmatory Assay used to Identify Novel Compounds that Inhibit Mycobacterium Tuberculosis in the absence of Glycerol.; type: functional
[9] = target: T2, Tyrosine-protein phosphatase non-receptor type 7 (Homo sapiens, UniProt P35236); assay: HePTP tyrosine phosphatase activity blockers – biochemical, absorbance, leukemia target, primary screen (AID 521); type: functional
T2 sequence (P35236 whole entry): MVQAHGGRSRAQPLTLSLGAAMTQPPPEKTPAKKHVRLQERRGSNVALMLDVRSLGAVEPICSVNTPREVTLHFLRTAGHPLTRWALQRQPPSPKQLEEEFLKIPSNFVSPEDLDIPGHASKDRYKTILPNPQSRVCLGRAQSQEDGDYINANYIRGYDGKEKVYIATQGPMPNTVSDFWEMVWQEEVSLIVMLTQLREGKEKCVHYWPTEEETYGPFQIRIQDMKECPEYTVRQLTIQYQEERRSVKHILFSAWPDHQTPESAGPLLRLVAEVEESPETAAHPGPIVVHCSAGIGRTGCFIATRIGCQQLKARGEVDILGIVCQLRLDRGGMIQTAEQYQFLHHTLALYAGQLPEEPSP

[10] = Luminescence-based dose response cell-based high throughput screening assay for cytotoxic compounds using the IEC-6 intestinal epithelial cell line. [Related pubchem assays: 1858 (Summary AID.), 1825 (Counterscreen.), 1907 (Confirmation screen.)]; type: functional
[11] = Luminescence Cell-Based Dose Retest to Confirm Inhibitors of Cancer Stem Cells. [Related pubchem assays (depositor defined):AID2717, AID2721]; type: functional; conditions: Homo sapiens
Cytochrome P450 2C19 = Cytochrome P450 2C19 (Homo sapiens, UniProt P33261); assay: qHTS Assay for Inhibitors and Substrates of Cytochrome P450 2C19. [Related pubchem assays: 410 ]; type: ADME; conditions: read-out: Potency
Cytochrome P450 2C9 = Cytochrome P450 2C9 (Homo sapiens, UniProt P11712); conditions: Potency
Sequence of Cytochrome P450 2C9 (P11712 whole entry): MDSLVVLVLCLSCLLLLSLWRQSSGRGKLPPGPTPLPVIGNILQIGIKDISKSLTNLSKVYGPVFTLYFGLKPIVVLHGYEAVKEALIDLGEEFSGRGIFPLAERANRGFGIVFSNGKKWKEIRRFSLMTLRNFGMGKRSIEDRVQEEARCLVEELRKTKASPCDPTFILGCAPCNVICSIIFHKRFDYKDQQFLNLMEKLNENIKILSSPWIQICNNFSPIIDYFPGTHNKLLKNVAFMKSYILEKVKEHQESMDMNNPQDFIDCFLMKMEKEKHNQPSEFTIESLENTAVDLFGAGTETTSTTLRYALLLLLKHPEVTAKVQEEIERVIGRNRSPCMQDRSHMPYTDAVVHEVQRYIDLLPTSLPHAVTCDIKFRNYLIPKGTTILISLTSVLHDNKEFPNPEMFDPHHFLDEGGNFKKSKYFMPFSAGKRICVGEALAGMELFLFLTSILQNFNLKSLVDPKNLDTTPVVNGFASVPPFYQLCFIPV

Sequence of Large T antigen (P03070 whole entry): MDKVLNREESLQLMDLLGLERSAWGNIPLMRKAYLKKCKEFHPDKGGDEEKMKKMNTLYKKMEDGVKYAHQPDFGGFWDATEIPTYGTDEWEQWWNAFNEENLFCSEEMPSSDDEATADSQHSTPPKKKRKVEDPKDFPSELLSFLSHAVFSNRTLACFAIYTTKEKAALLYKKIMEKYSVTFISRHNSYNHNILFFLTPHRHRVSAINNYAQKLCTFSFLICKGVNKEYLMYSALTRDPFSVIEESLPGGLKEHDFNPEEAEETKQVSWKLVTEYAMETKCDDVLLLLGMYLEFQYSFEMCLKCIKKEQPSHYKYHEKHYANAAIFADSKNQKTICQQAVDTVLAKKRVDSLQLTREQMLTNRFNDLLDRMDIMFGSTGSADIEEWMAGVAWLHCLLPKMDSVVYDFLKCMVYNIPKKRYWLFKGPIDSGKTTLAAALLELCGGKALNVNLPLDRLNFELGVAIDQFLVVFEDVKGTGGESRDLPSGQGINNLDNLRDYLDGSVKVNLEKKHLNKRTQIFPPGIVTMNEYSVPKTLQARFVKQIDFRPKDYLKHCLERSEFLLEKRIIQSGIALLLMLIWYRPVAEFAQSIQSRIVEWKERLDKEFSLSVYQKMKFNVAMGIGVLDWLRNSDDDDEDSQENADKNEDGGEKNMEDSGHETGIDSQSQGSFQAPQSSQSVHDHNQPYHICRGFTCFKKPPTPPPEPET
Sequence of Cytochrome P450 2C19 (P33261 whole entry): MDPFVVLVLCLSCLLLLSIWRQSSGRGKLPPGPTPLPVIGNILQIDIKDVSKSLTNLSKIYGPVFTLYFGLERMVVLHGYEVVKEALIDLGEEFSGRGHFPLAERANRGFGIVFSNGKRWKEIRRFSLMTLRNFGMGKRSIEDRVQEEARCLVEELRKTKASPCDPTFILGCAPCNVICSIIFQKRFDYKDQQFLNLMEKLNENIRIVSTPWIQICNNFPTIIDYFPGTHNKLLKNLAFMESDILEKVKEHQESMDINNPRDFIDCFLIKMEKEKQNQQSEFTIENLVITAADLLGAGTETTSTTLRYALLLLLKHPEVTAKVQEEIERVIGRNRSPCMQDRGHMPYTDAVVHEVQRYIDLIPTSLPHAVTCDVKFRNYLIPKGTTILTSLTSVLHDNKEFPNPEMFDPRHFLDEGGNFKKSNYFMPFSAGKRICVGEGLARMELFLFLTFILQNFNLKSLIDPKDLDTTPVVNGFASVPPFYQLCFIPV

Structure (SMILES): COc1cccc(-n2c(/C=C/c3ccc(O)c(O)c3)nc3ccccc3c2=O)c1
- IC50 (Large T antigen): > 100 µM (active)
- IC50 [1]: > 50 µM (not active)
- CC50 [2]: 23.1 µM (active)

Structure (SMILES): C=C(C)[C@@]12OC3(c4ccccc4)O[C@@H]1C1[C@@H]4O[C@]4(CO)[C@@H](O)[C@]4(O)C(=O)C(C)=C[C@H]4[C@@]1(O3)[C@H](C)[C@H]2OC(=O)/C=C/C=C/c1ccccc1 (stereo partly specified)
- CC50 (Vero [3]): > 100 µM (active)
- EC50 [4]: < 0.1 µM (active)
- EC50 [5]: > 60 µM (not active)
- IC50 [6]: > 80 µM (inactive)
- CC50 (Vero [7]): > 25 µM (active)
- EC50 (cells): < 0.004 µM (active)

Structure (SMILES): COc1cc2cc(C(c3nnnn3C(C)(C)C)N3CCc4ccccc43)c(O)nc2cc1OC (stereo unspecified)
- IC50 [8]: > 100 µM (active)

Structure (SMILES): O=C(CCCn1c(=O)[nH]c2cc(Cl)ccc2c1=O)NCCN1CCN(c2ccccc2)CC1
- IC50 [9]: > 100 µM (not active)

Structure (SMILES): COC(=O)C(Cc1ccc(N(CCCl)CCCl)cc1)/N=C/c1ccccc1O (stereo unspecified)
- IC50 [10]: 0.103 µM (active)
- AC50 [11]: 0.899 µM (active)
- IC50 [6]: > 80 µM (inactive)

Structure (SMILES): COc1cc2ccc(=O)oc2c(O)c1O [FRAXETIN]
- AC50 (Cytochrome P450 2C19): 39.8 µM (inconclusive)
- AC50 (Cytochrome P450 2C9): 25.1 µM (inconclusive)
